Assay [1] has as its system primary bovine chondrocytes. Kind of assay: inhibition of cytokine-induced nitric oxide release (Greiss reaction). It is filed as cell-based. As to conditions: Bos taurus, Chondrocyte; second value of the cell (after the slash); TNFα and oncostatin M, 48 hours; read-out: NO INHIBTION μM IC50. The source says: In the screen, hMSCs were used as a surrogate to future targeting of the resident MSCs with the cartilage joint. It was in that setting upon which we identified PRO1. In a joint injury, the primary cell type a therapeutic would have contact with is the chondrocyte. Although cartilage or chondrocyte-targeted screening has not lead to the development of a successful drug modifying osteoarthritis drug (DMOAD) to date, it is believed that a stem cell-based therapeutic would protect and even repair the existing chondrocytes. Therefore, protection of the articular chondrocytes and cartilage from a mature bovine knee was assessed. PRO1 and its analogues were incubated with primary bovine chondrocytes or cartilage explants cultures grown in the presence of TNFα and oncostatin M to mimic the cytokine-induced damage that can occur during OA. In the presence of the cytokine cocktail, in vitro cultured primary chondrocytes released 4-5 fold more nitric oxide (NO) than the untreated chondrocytes (50 μM vs 10 μM) as measured by the Greiss reaction. In cells treated with the cytokine cocktail and PRO1, the small molecule could effectively block the release of NO by up to 70% FIG. 2C). Similarly, in ex vivo treated cartilage explants, cytokine-induced release of glycosaminoglycans (GAG) was reduced by up to 60% by PRO1 (FIG. 2D). Finally, hMSC were grown in pellet culture for 21 days.
(§1) Primary hMSCs were plated (10,000/well) in 384-well plates and cultured for 18 days. The cells were fixed with 4% formalin, permeabilized with triton (0.5%), digested with 0.5 mg/ml collagenase II to unwind the collagen fibrils, and then immunostained with an antibody recognizing type II collagen. DAPI (2 μg/ml) was added to visualize the nuclei. The chondrogenic nodules stained positive for type II collagen but lacked expression of type X collagen and osteocalcin, markers for chondrocyte hypertrophy and osteoblasts, respectively (not shown). 10,000 hMSCs (passages 3-5) were plated in Greiner 384-well low-bottom plates on day 1. The cells were allowed to adhere and stimulated for 48 hrs (days 2-3) with the indicated stimuli in MSC growth media (Millipore). The media was then removed and replaced with serum-free DMEM for an additional 16 days. This media was replenished on days 10 and 15 of the assay. Primary bovine chondrocytes were isolated from the articular surfaces from mature knees. After one week of culture, 8,500 cells were trypsinized and plated in Greiner 384-well white clear-bottom plates in growth media. […] 20 μl of the supernatant was mixed with 20 μl of the Greiss reagent and quantitated at 540 nm as described by the Promega kit instructions. Bovine cartilage explants (cut in circular explants in a 96 well plate) were cultured in the presence of 20 ng/ml TNFα and 10 ng/ml oncostatin M to induce GAG release for 72 hours (FIG. 2D). PRO1 was added at the indicated concentrations during the entire 72 hrs. […] Parafin sections were hydrated, incubated in low pH Antigen unmasking solution (Vector) at 90 C for 10 minutes, permeabilized with 0.1% collagenase II (only for the sections stained with type II collagen) for 10 minutes, blocked with CAS block for 10 minutes and then incubated with the primary antibody (type II collagen, aggrecan or Timp1) antibody (Abcam) overnight at 4 C. The antigens were visualized through standard ABC detection methods and developed with DAB. Representative of 3 sections stained/treatment group (independent experiments).

The test system of another assay is hMSCs. Kind of assay: type II collagen expression in hMSC cultures (18 day assay). Type of assay: cell-based, human. As to conditions: for EC50: Homo sapiens. The procedure:
The chondrogenic differentiation event was initiated quickly even though a fully differentiated chondrocyte phenotype cannot be assessed prior to 14 days in culture. In an 18 day assay, compound treatment was only required for the first 48 hrs and followed by removal and replacement of the media (in the absence of stimuli, FIG. 2B). The promotion of chondrogenic differentiation was not altered or enhanced upon longer treatment with the stimuli (data not shown).
as §1

Assay [2] relates to human mesenchymal stem cells (hMSCs). Kind of assay: chondrogenic nodule formation by hMSCs (high throughput screen). The conditions noted are these: Homo sapiens, Mesenchymal stem cells; first value of the cell (before the slash); read-out: CHONDROGENIC μM EC50. It is filed as cell-based. The method, boiled down:
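Primary hMSCs (10^4/well) in serum-free DMEM exposed to compounds at 5 μM for 4 days. Chondrogenic nodules stained with Nile red (binds collagens) and counted by high-content imaging with 488 laser excitation. In 96-well follow-up, 50,000 cells/well treated 4 days, formalin-fixed, stained with 1 μg/ml Rhodamine B.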

What is called IC50 is the point on the concentration scale where inhibition reaches its midpoint. By EC50 is commonly meant the concentration at which the effect is half-maximal.

For `N#Cc1ccc(NC(=O)c2ccccc2C(=O)O)cc1` [AKT-CN], in assay [1], the IC50 amounted to 0.03 µM. For the same compound, the EC50 in the assay with hMSCs is 0.108 µM; in assay [2], 0.137 µM. The “induction of chondrogenic differentiation of hMSCs” value with hMSCs (compared with known inducers TGFβ3, BMP7 or BMP2, FIG. 2B) is “more potent and efficient”.
Regarding `O=C(O)c1cc(F)ccc1C(=O)Nc1ccc(-c2ccccc2)cc1` [AKT-F], in assay [1], the IC50 was > 10 µM. The EC50 (in the assay on hMSCs; in assay [2]) was > 10 µM throughout.
Consider `Cc1ccc(C(=O)Nc2ccc(-c3ccccc3)cc2)c(C(=O)O)c1` [AKT-Me], for which the IC50 in assay [1] is > 10 µM. Also, the EC50 (in the assay with hMSCs; in assay [2]) was > 10 µM in each case.
Take `CCNC(=O)c1ccccc1C(=O)O` [AKT-NHEt]: the IC50 in assay [1] is > 10 µM. Further, the EC50 in the assay on hMSCs was > 10 µM; in assay [2] it was 2.01 µM.
For the compound `CNC(=O)c1ccccc1C(=O)O` [AKT-NHMe], the IC50 in assay [1] stood at 0.0046 µM. For the same compound, the EC50 in the assay on hMSCs amounted to 0.24 µM; in assay [2], 2.7 µM.
Regarding `CC(C)CNC(=O)c1ccccc1C(=O)Nc1ccc(-c2ccccc2)cc1` [AKT-iPr], the IC50 in assay [1] is > 10 µM. Besides, the EC50 in the assay on hMSCs was determined as 6.98 µM; in assay [2] it was 0.0015 µM.
As to `O=C(O)c1ccccc1C(=O)Nc1ccc(C(F)(F)F)cc1` [Compound L4, 2-((4-(trifluoromethyl)phenyl)carbamoyl)benzoic acid], the IC50 in assay [1] turned out to be 22.1 µM. Besides, the EC50 was 11.1 µM in the assay with hMSCs and 9.5 µM in assay [2].
Take `Cc1cncc(NC(=O)c2ccccc2C(=O)O)c1` [Compound L5]: the IC50 in assay [1] came out at 2.4 µM. For the same compound, the EC50 is > 10 µM in the assay on hMSCs and 0.6 µM in assay [2].
The like results for `Cc1ccc(NC(=O)c2ccccc2C(=O)O)cn1` [Compound L6] were, in that order, > 10 µM, > 10 µM and > 10 µM.
With `O=C(O)c1ccccc1C(=O)Nc1ccc(I)cc1` [Compound L11a, 2-((4-iodophenyl)carbamoyl)benzoic acid], in assay [1], the IC50 is > 10 µM. In addition, the EC50 (with hMSCs; in assay [2]) was > 10 µM throughout.
Turning to `O=C(O)c1ccccc1C(=O)Nc1ccc(CCO)cc1` [Compound L11c, 2-((4-(2-hydroxyethyl)phenyl)carbamoyl)benzoic acid], in assay [1], the IC50 is > 10 µM. Moreover, the EC50 with hMSCs is > 10 µM; in assay [2] it was 0.125 µM.
On to `N#CCc1ccc(NC(=O)c2ccccc2C(=O)O)cc1` [Compound L13], for which the IC50 in assay [1] is > 10 µM. Besides, the EC50 (in the assay on hMSCs; in assay [2]) was > 10 µM throughout.
For `O=C(O)c1cc(S(=O)(=O)c2ccc(C(=O)Nc3ccc(-c4ccccc4)cc3)c(C(=O)O)c2)ccc1C(=O)Nc1ccc(-c2ccccc2)cc1` [LK4], the IC50 in assay [1] was > 10 µM. In addition, the EC50 was found to be 33.3 µM in the assay with hMSCs and 3.8 µM in assay [2].
With `O=C(O)c1ccccc1C(=O)Nc1ccc(N2CCOCC2)cc1` [LK6, 2-((4-morpholinophenyl)carbamoyl)benzoic acid], in assay [1], the IC50 is > 10 µM. In addition, the EC50 with hMSCs is > 10 µM; in assay [2], 9.1 µM.
For the compound `O=C(O)c1ccccc1C(=O)Nc1ccc(Nc2ccccc2)cc1` [LK7], the IC50 in assay [1] is > 10 µM. Further, the EC50 (in the assay with hMSCs; in assay [2]) was > 10 µM each time.
Consider `NS(=O)(=O)c1ccc(NC(=O)c2ccccc2C(=O)O)cc1` [LK8], for which, in assay [1], the IC50 is > 10 µM. Moreover, the EC50 is > 10 µM with hMSCs and 9.1 µM in assay [2].
Turning to `O=C(O)c1ccccc1C(=O)Nc1ccc(CCCc2ccccn2)cc1` [LK15, 2-((4-(3-(pyridin-2-yl)propyl)phenyl)carbamoyl)benzoic acid], the IC50 in assay [1] is > 10 µM. Further, the results for the EC50 (with hMSCs; in assay [2]) were > 10 µM and 0.12 µM, respectively.
In the case of `O=C(O)c1ccccc1C(=O)Nc1ccc(-c2ccccc2)cc1` [LK18b], the IC50 in assay [1] is 2.7 µM. Besides, the EC50 was determined as 0.05 µM in the assay with hMSCs and 0.0015 µM in assay [2].
As to `Cc1ccc(C(=O)Nc2ccc(C#N)cc2)cc1` [LK20b], in assay [1], the half-inhibitory concentration (IC50) is > 10 µM. In addition, the EC50 in the assay with hMSCs was > 10 µM; in assay [2], 0.014 µM.

(Values after US10166237B2, “Compounds and methods for inducing chondrogenesis” (The Scripps Research Institute, priority 2011, dated 2019).)
